Data published in patent US7662977B2, “PI-3 kinase inhibitor prodrugs” (Semafore Pharmaceuticals, Inc., priority 2003, dated 2010).
Peptide text beside a SMILES is read from it. * marks the point of attachment. X1 = O=C(CCC(=O)*)OC[N+]1(c2cc(=O)c3cccc(-c4ccccc4)c3o2)CCOCC1

Columns and labels:
[1] = Reversibility of prodrugs to compound 1 in aqueous phosphate buffer (LC-MS over time); details: for half-life: phosphate buffer
Description: Prodrug Compounds were dissolved in water or in DMSO (if not freely soluble in water) and then diluted at least 10-fold into 50 mM phosphate buffer at pH=7.4 or pH=4.8 and allowed to stand at room temperature. The final concentration of the compounds in aqueous environment ranged from 50 to 500 uMolar.

J774 macrophages [2] = experiment: Phagocytosis of sensitized sRBCs in J774 macrophages (class I PI-3 kinase-dependent pathway); type: cell-based; details: for phagocytic index (PGI): 5 μM
Description: The columns indicate phagocytic index or percentage of cells positive for phagocytic response. The phagocytic index is the number of sRBC's (sheep red blood cells) found per 100 J774 cells and the % of phagocytic cells is the % of J774 cells that have phagocytized at least 1 sRBC. The error bars represent standard deviation of mean.
The bioactivity of LY294002 (Compound 1) was determined by assaying phagocytosis in J774 macrophages, which is a class I PI-3 kinase-dependent pathway. Briefly, […] DMSO control for 1 h in DMEM with 10% FCS and then sensitized sRBCs (sheep red blood cells) was added at a target to effector ratio equal to 100:[…] Cells were exposed to hypotonic shock to remove red blood cells and phagocytosis was determined by measurement of hemoglobin concentration in the cell lysates. […]

nude mice = experiment: Acute toxicity after intravenous injection in nude mice; type: in vivo
Description: (§1) In order to prepare the acetoxymethyl quarternary salt of Compound 1101, 1.0 g Compound 1101 was dissolved in 10 ml dry acetonitrile in a glass vial, and 1.0 g bromomethyl acetate (2.0 equivalents) was added and allowed to stir at room temperature overnight. LCMS indicated presence of starting material, so the reaction was heated at 65° C. in an oil bath for 8 hours. The mother liquors were decanted from the solid and the solids washed with a small amount of cold acetonitrile. The solid was dried in a vacuum dessicator overnight. The product was identified as 264 mg of a white solid with a retention time of 2.204 minutes, M+=380 which was 97% pure. […] Additionally, 250 uL of this 32.5 mM solution of compound A040-70 was administered to a nude mouse by oral gavage.
Intravenously administered Compound 1 was determined to have a 100% mortality within 5 minutes of administration in three nude mice at a dose level of 16 mg/kg.

[3] = test system: human non-small cell lung cancer cells: H1299; experiment: H1299 non-small cell lung cancer xenograft in nude mice; type: in vivo
Description: Male nude mice of 4-6 weeks in age weighing around 30 grams were inoculated subcutaneously in the right flank with 5 million tumor cells (human non-small cell lung cancer cells: H1299) on day 0. After 14 days of allowing the tumors to grow the animals were divided into 3 groups of 5 animals each. One group received vehicle control alone. One group received twice-per-day tail vein injections (i.v) of 50 uL volume of 24.4 millimolar solution of Compound 1126 in phosphate buffered saline corresponding to 25 mg/kg/day dosing level of the active component of the prodrug (i.e. compound 1). The last group received twice-per-day tail vein injections (i.v) of 50 uL volume of 4.9 millimolar solution of Compound 1126 in phosphate buffered saline corresponding to 5 mg/kg/day dosing level of the active component of the prodrug (compound 1). The tumors were measured every three days using calipers to determine the tumor volume and the animals weights were recorded when the animals were sacrificed on day 27. The results are shown in Table 7 and indicate strong tumor volume reduction versus control for both dose levels at the first datapoint only 3 days after treatment (Day 17) and continuing through to the end of the study: […]

[4] = test system: human brain cancer cell line (U87MG); experiment: U87MG brain cancer xenograft model; type: in vivo; details: 25 mg/kg/day; for % Tumor Volume Reduction compared to vehicle only control: treatment from day 7, U87MG xenograft
Description: Male nude mice of 4-6 weeks in age weighing around 30 grams were inoculated subcutaneously in the right flank with 5 million tumor cells (human non-small cell lung cancer cells: H1299) on day 0. After 14 days of allowing the tumors to grow the animals were divided into 3 groups of 5 animals each. One group received vehicle control alone. One group received twice-per-day tail vein injections (i.v) of 50 uL volume of 24.4 millimolar solution of Compound 1126 in phosphate buffered saline corresponding to 25 mg/kg/day dosing level of the active component of the prodrug (i.e. compound 1). The last group received twice-per-day tail vein injections (i.v) of 50 uL volume of 4.9 millimolar solution of Compound 1126 in phosphate buffered saline corresponding to 5 mg/kg/day dosing level of the active component of the prodrug (compound 1). The tumors were measured every three days using calipers to determine the tumor volume and the animals weights were recorded when the animals were sacrificed on day 27. The results are shown in Table 7 and indicate strong tumor volume reduction versus control for both dose levels at the first datapoint only 3 days after treatment (Day 17) and continuing through to the end of the study:
An animal study was run as described in Example above except using a human brain cancer cell line (U87MG) and with treatment starting on day 7 such that the first tumor volume measurement occurred on day 10.

[5] = test system: EDC-CBF1 endothelial cells; experiment: Tube formation of EDC-CBF1 endothelial cells on Matrigel; type: cell-based; details: overnight
Description: In this example it was determined to what degree PI 3 kinase inhibitors (including targeted PI3 kinase inhibitor prodrugs) could inhibit tube formation. Matrigel was plated into 12-well plate wells and solidified in 37° C. for 2 hours. 1×10^5 EDC-CBF1 endothelial cells were then put on the top of the Matrigel layer in the presence of PBS, RADfV (cyclic negative control peptide), RGDfV (cyclic positive control peptide), RADS (linear negative control peptide), compound 1, or Compound 1126 at 20° M concentration overnight. Pictures were then taken using a microscope.

[6] = test system: p53 transcriptional activity; experiment: p53 luciferase (transcriptional activity) in HBECs; type: cell-based; details: for induction of p53 luciferase activity versus control: HBECs, Compound 1: 6 hour exposure
Excerpt: This experiment tested the effect of PI 3 kinase inhibitors (Compound 1 and the targeted prodrug version of Compound 1; Compound 1126) on the induction of p53 luciferase activity. The transfection procedure was similar to that described in the literature to monitor p53 transcription.

J774 macrophages [7] = experiment: Phagocytosis of sensitized sRBCs in J774 macrophages (class I PI-3 kinase-dependent pathway); type: cell-based
[8] = Water solubility / solution in phosphate buffered saline; type: physicochemical
Description: as §1

[9] = portion not accumulated in the skeleton; cited from earlier work
[10] = 20 uM, exposure-limited: 20 minute exposure then removal of test solution, solvent blank 163

O=C(CCC(=O)OC[N+]1(c2cc(=O)c3cccc(-c4ccccc4)c3o2)CCOCC1)NCc1ccc(C(=O)NCCN(CCN(CP(=O)(O)O)CP(=O)(O)O)CCN(CP(=O)(O)O)CP(=O)(O)O)cc1 [Compound A046-89P]
conversion back to compound 1 ([1]; after 24 hours standing at pH=7.0, phosphate buffer): converted completely back to compound 1

N=C(N)NCCCC(NC(=O)CCC(=O)OC[N+]1(c2cc(=O)c3cccc(-c4ccccc4)c3o2)CCOCC1)C(=O)NCC(=O)NC(CC(=O)O)C(=O)NC(CO)C(=O)O (centres unmarked) [Compound 1126] (X1-RGDS-OH; configuration not given here)
phagocytic index (PGI) (J774 macrophages [2]; aqueous pH=7 incubation time 2 hours): 88 | phagocytic index (PGI) (J774 macrophages [2]; aqueous pH=7 incubation time 5 hours): 78 | phagocytic index (PGI) (J774 macrophages [2]; aqueous pH=7 incubation time 10 hours): 37 | phagocytic index (PGI) (J774 macrophages [2]; time zero with no preincubation): 140 | mortality (nude mice; intravenous, 22 mg/kg, three nude mice, after 1 hour of observation): 0% | % Tumor Volume Reduction compared to vehicle only control ([3]; 5 mg/kg/day i.v. twice per day from day 14, H1299, Day 17): 29% | % Tumor Volume Reduction compared to vehicle only control ([3]; 5 mg/kg/day i.v. twice per day from day 14, H1299, Day 20): 50% | % Tumor Volume Reduction compared to vehicle only control ([3]; 5 mg/kg/day i.v. twice per day from day 14, H1299, Day 24): 44% | % Tumor Volume Reduction compared to vehicle only control ([3]; 5 mg/kg/day i.v. twice per day from day 14, H1299, Day 27): 35% | % Tumor Volume Reduction compared to vehicle only control ([3]; 25 mg/kg/day i.v. twice per day from day 14, H1299, Day 17): 35% | % Tumor Volume Reduction compared to vehicle only control ([3]; 25 mg/kg/day i.v. twice per day from day 14, H1299, Day 20): 66% | % Tumor Volume Reduction compared to vehicle only control ([3]; 25 mg/kg/day i.v. twice per day from day 14, H1299, Day 24): 68% | % Tumor Volume Reduction compared to vehicle only control ([3]; 25 mg/kg/day i.v. twice per day from day 14, H1299, Day 27): 68% | animal body weights, control group versus the two treatment groups ([3]; day 27, 25 and 5 mg/kg/day i.v., nude mice): lack of statistically significant difference | tolerability of twice per day doses ([3]; two week administration period, 25 and 5 mg/kg/day i.v., nude mice): well tolerated | toxicity in U87MG xenograft study [4]: desirable lack of toxicity | % Tumor Volume Reduction compared to vehicle only control ([4]; Day 10): 20.2% | % Tumor Volume Reduction compared to vehicle only control ([4]; Day 14): 52.6% | % Tumor Volume Reduction compared to vehicle only control ([4]; Day 17): 38.5% | % Tumor Volume Reduction compared to vehicle only control ([4]; Day 21): 35.2% | tube formation compared with PBS control [5]: significantly less | induction of p53 luciferase activity versus control [6]: ~3 fold | phagocytic index (PGI) (J774 macrophages [7]; 1 uM, 20 minute incubation, removal, then 2 hours for phagocytosis, 0 uM gave 213): 206 | phagocytic index (PGI) (J774 macrophages [7]; 3 uM, 20 minute incubation, removal, then 2 hours for phagocytosis, 0 uM gave 213): 143 | phagocytic index (PGI) (J774 macrophages [7]; 10 uM, 20 minute incubation, removal, then 2 hours for phagocytosis, 0 uM gave 213): 33 | phagocytic index (PGI) (J774 macrophages [7]; [10]): 50

CC(C)(C)OC(=O)CCC(=O)OC[N+]1(c2cc(=O)c3cccc(-c4ccccc4)c3o2)CCOCC1 [Compound 1110]
half-life ([1]; pH 4.8): > 120 h | half-life ([1]; pH 7.4): ~10 h

O=c1cc(N2CCOCC2)oc2c(-c3ccccc3)cccc12 [Compound 1, 2-(4-morpholinyl)-8-phenyl-4H-1-benzopyran-4-one]
blocking of phagocytosis (J774 macrophages [2]; LY294002 at 10, 1 and 0.1 μM for 1 h, J774 cells): significantly blocked phagocytosis at all concentrations in a dose dependent manner | mortality (nude mice; nude, mouse, in vivo, iv, 16 mg/kg, 5 min): 100% | tube formation compared with PBS control [5]: significantly less | induction of p53 luciferase activity versus control [6]: more than two fold higher | phagocytic index (PGI) (J774 macrophages [7]; [10]): 190

CN1CC(=O)N(c2ccc(C(=O)OC[N+]3(c4cc(=O)c5cccc(-c6ccccc6)c5o4)CCOCC3)cc2)C1=S [Compound A017-59]
conversion back to compound 1 ([1]; phosphate buffer at pH=7.4, over a 17 hour period): significant amounts of this compound converted back to compound 1

arg-gly-asp-ser [RGDS, reference compound]
tube formation compared with PBS control [5]: not much difference | phagocytic index (PGI) (J774 macrophages [7]; [10]): 170

Cc1ccc(C(=O)Cn2c3c(sc2=N)CCCC3)cc1 [pifithrin alpha]
effect on induction of p53 function by Compound 1 and Compound 1126 ([6]; 20 uM concentration): abrogated

COCCOCCOCCOCCC(=O)OC[N+]1(c2cc(=O)c3cccc(-c4ccccc4)c3o2)CCOCC1 [Compound A027-85]
half-life ([1]; pH 7.4): ~3 h

2-(4-morpholinyl)-8-phenyl-4H-1-benzopyran-4-one [Compound 1]
observed effects after injection (nude mice; mice, injection of 1.04 uMoles): immediate death in three out of three mice

CC(=O)OC[N+]1(c2cc(=O)c3cccc(-c4ccccc4)c3o2)CCOCC1 [Compound A040-70]
water solubility [8]: very high water solubility | concentration of solution prepared in phosphate buffered saline ([8]; 27 mg in 1.865 mL PBS, resulting pH around 4): 32.5 millimolar | half-life ([1]; pH 7.4): ~10 h

O=P([O-])(O)CN(CCN(CP(=O)([O-])O)CP(=O)(O)O)CP(=O)([O-])O.[153Sm+3] [^153Sm-EDTMP]
time after administration at which excretion is almost complete [9]: ≤ 6 h
